In patent US5470854A, “2-phenylbenzo[B]furans, process for their manufacture and pharmaceutical preparations containing them” (Schering Aktiengesellschaft, priority 1991, dated 1995):

Key:
[1] = test system: uterus of infantile mice; assay: Uterotrophic test (in-vivo test on infantile mice); conditions: uterus dry weight (mg)/body weight (g) × 100
Protocol: (§1) The effectiveness of these compounds was found in an in-vivo test on infantile mice. This test is extensively described in Cancer Treatment Reviews 1984, 11, 147, and J. Med. Chem., 1984, 27, 1439.
(§2) ^a dosage/animal, administered s.c. on three consecutive days in oliv
(§3) ^b uterus dry weight (mg)/body weight (g) × 100, determined 24
(§4) hours after the final injection.

[2] = test system: human MCF-7 mamma carcinoma cells; assay: Effect on cell growth of MCF-7 cells; type: cell-based; conditions: for activity at 10 µM / activity at 1 µM / activity at 0.1 µM / activity at 5 µM: Homo sapiens, MCF7, mean of 16 individual results, read-out: T/C (corrected); for activity at 10 µM: 1 × 10^-5 M; for activity at 1 µM: 1 × 10^-6 M; for activity at 0.1 µM: 1 × 10^-7 M; for activity at 5 µM: 5 × 10^-6 M
Protocol: Data given as corrected T/C values (%).
^a Inhibiting effect on MCF7 cells: quotient of optical densities fro
standard deviation through error reckoning according to GAUSS.
^b Substance concentration (mol/1) in incubation medium.
^c Significant p < 0.01 in relation to control group (C).

[3] = target: T1, oestrogen receptor (Bos taurus, UniProt P49884); assay: Relative bonding affinity to the oestrogen receptor (competition with 3H-17β-Estradiol); type: binding, calf; conditions: for RBA* (relative bonding affinity to the oestrogen receptor): calves' uteri, in relation to 17β-estradiol = 100
T1 construct: oestrogen receptor of a calf's uterus; from tissue; host or cells: calf uterus
T1 sequence (P49884 1-596): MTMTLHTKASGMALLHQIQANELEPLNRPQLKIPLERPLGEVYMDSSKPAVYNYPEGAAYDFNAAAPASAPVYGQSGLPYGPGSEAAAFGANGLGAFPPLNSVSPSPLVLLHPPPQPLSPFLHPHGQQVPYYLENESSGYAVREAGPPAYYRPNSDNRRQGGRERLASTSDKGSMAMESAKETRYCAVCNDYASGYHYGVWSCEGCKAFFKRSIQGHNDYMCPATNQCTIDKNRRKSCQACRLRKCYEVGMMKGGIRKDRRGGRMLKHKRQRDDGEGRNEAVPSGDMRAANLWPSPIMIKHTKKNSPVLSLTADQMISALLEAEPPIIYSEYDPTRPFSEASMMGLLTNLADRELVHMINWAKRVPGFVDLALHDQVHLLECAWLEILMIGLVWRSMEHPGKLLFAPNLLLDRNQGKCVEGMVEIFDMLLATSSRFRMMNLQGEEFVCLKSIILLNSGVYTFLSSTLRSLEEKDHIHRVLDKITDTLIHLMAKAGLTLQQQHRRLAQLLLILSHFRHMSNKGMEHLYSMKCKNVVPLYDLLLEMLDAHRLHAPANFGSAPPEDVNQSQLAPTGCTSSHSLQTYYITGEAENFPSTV
Source text: The test methodology is described in Cancer Treatment Reviews 1984, 11, 147.
*Relative bonding affinities to the oestrogen receptor of calves' uteri,
in relation to 17β-estradiol = 100

[4] = test system: uterus of infantile mice; assay: Anti-uterotrophic test (in-vivo test on infantile mice); conditions: simultaneous 0.4 μg oestron/animal/day; for anti-uterotrophic test, effect: uterus dry weight (mg)/body weight (g) × 100
Protocol: as §1, §2, §3, §4
^c simultaneous administration of 0.4 μg oestron/animal/day.

[5] = 1 μg/animal s.c. on three consecutive days
[6] = 5 μg/animal s.c. on three consecutive days
[7] = 25 μg/animal s.c. on three consecutive days
[8] = 125 μg/animal s.c. on three consecutive days

SMILES	uterotrophic test, effect [1, 5] [mg/g × 100]	uterotrophic test, effect [1, 6] [mg/g × 100]	uterotrophic test, effect [1, 7] [mg/g × 100]	uterotrophic test, effect [1, 8] [mg/g × 100]	effect on the growth of MCF-7 / hormone-dependent tumour cells, in words [2]	activity at 10 µM [2] [%]	activity at 1 µM [2] [%]	activity at 0.1 µM [2] [%]	activity at 5 µM [2] [%]	RBA* (relative bonding affinity to the oestrogen receptor) [3]	anti-uterotrophic test, inhibition ([4]; 5 μg/animal s.c.) [%]	anti-uterotrophic test, inhibition ([4]; 25 μg/animal s.c.) [%]	anti-uterotrophic test, inhibition ([4]; 125 μg/animal s.c.) [%]	anti-uterotrophic test, effect ([4]; 5 μg/animal s.c.) [mg/g × 100]	anti-uterotrophic test, effect ([4]; 25 μg/animal s.c.) [mg/g × 100]	anti-uterotrophic test, effect ([4]; 125 μg/animal s.c.) [mg/g × 100]	affinity to the oestrogen (estradiol) receptor, in words [3]	other results
Oc1ccc(-c2oc3ccc(O)cc3c2CCCCCCN2CCCCC2)cc1 [Compound 68a, 5-hydroxy-2-(4-hydroxyphenyl)-3-(6-N-piperidylhexyl)benzo[b]furan]	16.1 ± 2.1	17.3 ± 2.9	15.8 ± 1.9	17.3 ± 3.2	strongly inhibiting effect	-9.9 ± 1.8	51.6 ± 10.2	64.4 ± 12	10.4 ± 4.8	4,3	55	56	48	38.1 ± 7.5	37.6 ± 6.2	41.8 ± 6.4		
Oc1ccc(-c2oc3cc(O)ccc3c2CCCCCCN2CCCCC2)cc1 [Compound 68b, 6-hydroxy-2-(4-hydroxyphenyl)-3-(6-N-piperidylhexyl)benzo[b]furan]	18.3 ± 1.9	18.8 ± 3.0	24.4 ± 3.8	21.4 ± 3.7		-9.6 ± 2.9	42.9 ± 7.7	58.7 ± 17.1	12.1 ± 5.4	5,4	10	7		58.6 ± 7.1	59.9 ± 6.6	68.7 ± 9.9		
Cc1c(-c2ccc(O)cc2)sc2ccc(O)cc12 [Compound 102a, 5-hydroxy-2-(4-hydroxypheny)-3-methyibenxo[b]thiophen]	15.8 ± 2.1	20.8 ± 2.7	15.7 ± 2.3	18.5 ± 3.0	strongly inhibiting effect	14.7 ± 6.4	87.4 ± 20	71.3 ± 18.8	48.5 ± 14.7	26,0	12	68	42	42.4 ± 4.0	23.1 ± 3.8	32.2 ± 3.8	greatest affinity in relation to estradiol	
Cc1c(-c2ccc(O)cc2)sc2cc(O)ccc12 [Compound 102b, 6-hydroxy-2-(4-hydroxyphenyl)-3-methylbenzo[b]thiophen]	10.9 ± 2.1	12.1 ± 1.9	16.9 ± 2.9	21.9 ± 4.6	strongly inhibiting effect	10.9 ± 6.7	133 ± 43.4	125 ± 37.2	54.9 ± 17.9	9,7	7	30	31	47.0 ± 7.8	38.5 ± 3.7	38.1 ± 5.8		
CCc1c(-c2ccc(O)cc2)sc2ccc(O)cc12 [Compound 104a, 3-ethyl-5-hydroxy-2-(4-hydroxyphenyl)benzo[b]thiophen]	30.3 ± 7.7	38.5 ± 5.4	44.2 ± 6.6	19.6 ± 5.2	strongly inhibiting effect	3.2 ± 3.2	59.1 ± 15.9	61.2 ± 22.1	2.4 ± 3.9	59,6	27		30	37.0 ± 3.4	44.1 ± 6.7	36.3 ± 4.0	greatest affinity in relation to estradiol	uterotrophic test, effect ([1]; 0.2 μg/animal s.c. on three consecutive days, 24 hours after final injection): 27.6 ± 3.8 mg/g × 100; anti-uterotrophic test, inhibition ([4]; 1 μg/animal s.c.): 32%; anti-uterotrophic test, effect ([4]; 0.2 μg/animal s.c.): 49.8 ± 1.4 mg/g × 100; anti-uterotrophic test, effect ([4]; 1 μg/animal s.c.): 35.3 ± 7.3 mg/g × 100
CCc1c(-c2ccc(O)cc2)sc2cc(O)ccc12 [Compound 104b, 3-ethyl-6-hydroxy-2-(4-hydroxyphenyl)benzo[b]thiophen]	18.0 ± 4.0	22.7 ± 5.9	29.3 ± 4.5	39.9 ± 6.1	strongly inhibiting effect	4.2 ± 6	91.9 ± 21.2	94 ± 21.2	5.7 ± 5.8	27,6	32	33	31	37.9 ± 6.9	37.3 ± 4.2	38.0 ± 5.4	greatest affinity in relation to estradiol	
